Laboratory results reported in the Kinase Knowledgebase extract (Sharma et al. 2016).
Positions of bridges follow the written chain, without caps; N, C: chain ends. Non-standard residues stand in square brackets, D forms with d. Residues, ends and D or L forms follow the SMILES beside them. *: point of attachment. pY = N[C@@H](Cc1ccc(OP(=O)(O)O)cc1)C(=O)O; O(2-Aminobenzoyl) = Nc1ccccc1C(=O)O*; X9 = O=S(=O)(O*)c1cccc2cccnc12; X13 = Nc1cc2ccccc2cc1C(=O)O*; X2 = O=C(O*)c1cc2ccccc2[nH]1; X3 = O=C(O*)c1cnc2ccccc2c1; X7 = O=C(O*)c1cc2ccccc2cn1; X8 = Nc1cc(N)cc(C(=O)O*)c1; X12 = Nc1ccccc1C(=O)OCCN*; X5 = O=C(O*)C1Cc2ccccc2N1; Ac6c = NC1(C(=O)O)CCCCC1; X11 = Nc1ccc(C(=O)O*)cc1; Ac5c = NC1(C(=O)O)CCCC1; X1 = Nc1ccccc1C(=O)OCN*; X6 = Nc1cccc(C(=O)O*)c1; X10 = Nc1ncccc1C(=O)O*; X4 = O=C(O*)c1ccccc1O; Acm = CC(=O)NC*

Each molecule was assayed against EGFR (UniProt P00533).
Chain of EGFR (P00533 whole entry, looked up): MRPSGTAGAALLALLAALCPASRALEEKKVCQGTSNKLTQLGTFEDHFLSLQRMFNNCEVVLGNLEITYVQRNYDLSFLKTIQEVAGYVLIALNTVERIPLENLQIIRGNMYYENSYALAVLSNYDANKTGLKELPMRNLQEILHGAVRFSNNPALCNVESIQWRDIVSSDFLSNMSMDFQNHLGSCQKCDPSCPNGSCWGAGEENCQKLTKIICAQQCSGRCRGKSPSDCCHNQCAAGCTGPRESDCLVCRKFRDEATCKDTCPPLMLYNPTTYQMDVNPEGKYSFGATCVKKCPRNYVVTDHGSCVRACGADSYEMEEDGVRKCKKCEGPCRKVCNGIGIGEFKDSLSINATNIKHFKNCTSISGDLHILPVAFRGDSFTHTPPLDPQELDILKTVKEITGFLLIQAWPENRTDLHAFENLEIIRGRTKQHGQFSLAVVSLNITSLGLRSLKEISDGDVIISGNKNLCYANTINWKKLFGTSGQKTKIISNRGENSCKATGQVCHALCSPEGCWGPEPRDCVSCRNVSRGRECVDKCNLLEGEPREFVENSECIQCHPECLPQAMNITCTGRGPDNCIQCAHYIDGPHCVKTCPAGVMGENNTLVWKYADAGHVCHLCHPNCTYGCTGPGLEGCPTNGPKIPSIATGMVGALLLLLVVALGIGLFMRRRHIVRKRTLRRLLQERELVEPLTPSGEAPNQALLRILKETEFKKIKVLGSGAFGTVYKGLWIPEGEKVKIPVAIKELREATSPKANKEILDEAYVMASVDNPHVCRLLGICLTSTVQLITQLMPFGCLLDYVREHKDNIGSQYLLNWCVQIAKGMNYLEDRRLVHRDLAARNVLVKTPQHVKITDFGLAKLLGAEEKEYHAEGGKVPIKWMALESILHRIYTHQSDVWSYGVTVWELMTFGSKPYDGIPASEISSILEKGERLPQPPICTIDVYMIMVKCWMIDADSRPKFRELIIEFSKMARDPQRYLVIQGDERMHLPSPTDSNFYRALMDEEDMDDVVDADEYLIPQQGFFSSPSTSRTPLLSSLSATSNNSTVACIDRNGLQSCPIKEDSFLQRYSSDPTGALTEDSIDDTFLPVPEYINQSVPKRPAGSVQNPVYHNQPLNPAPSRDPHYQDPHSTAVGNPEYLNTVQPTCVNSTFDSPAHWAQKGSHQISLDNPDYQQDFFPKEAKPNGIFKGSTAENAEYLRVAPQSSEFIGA
Molecule `CC[C@H](C)[C@H](NC(=O)[C@H](CC(N)=O)NC(=O)[C@@H](N)CCC(N)=O)C(=O)N[C@@H](Cc1ccc(OP(=O)(O)O)cc1)C(=O)N[C@@H](CCC(=O)O)C(=O)OC(=O)c1cnc2ccccc2c1` (H-QNI[pY]E-X3) has an IC50 of 810 nM. `CC[C@H](C)[C@H](NC(=O)[C@H](CC(N)=O)NC(=O)[C@@H](N)CCC(N)=O)C(=O)N[C@@H](Cc1ccc(OP(=O)(O)O)cc1)C(=O)N[C@@H](CCC(=O)O)C(=O)OC(=O)c1cccc(N)c1` (H-QNI[pY]E-X6) gave an IC50 of 57 nM. Molecule `CC[C@H](C)[C@H](NC(=O)[C@H](CC(N)=O)NC(=O)[C@@H](N)CCC(N)=O)C(=O)N[C@@H](Cc1ccc(OP(=O)(O)O)cc1)C(=O)N[C@@H](CCC(=O)O)C(=O)OC(=O)C1Cc2ccccc2N1` (some centres undefined) (H-QNI[pY]E-X5) has an IC50 of 74 nM. `CC(=O)NCSC[C@H](NC(=O)[C@H](CC(N)=O)NC(=O)[C@@H](N)CCC(N)=O)C(=O)N[C@@H](Cc1ccc(OP(=O)(O)O)cc1)C(=O)N[C@@H](CSCNC(C)=O)C(=O)OC(=O)c1ccccc1N` (H-QNC(Acm)[pY]C(Acm)-{O(2-Aminobenzoyl)}) showed an IC50 of 3140 nM. In the case of `CC[C@H](C)[C@H](NC(=O)[C@@H](N)CC(N)=O)C(=O)N[C@@H](Cc1ccc(OP(=O)(O)O)cc1)C(=O)N[C@@H](CCC(=O)O)C(=O)OC(=O)c1ccccc1N` (H-NI[pY]E-{O(2-Aminobenzoyl)}), the IC50 is reported as 22 nM. Work on `CC[C@H](C)[C@@H]1NC(=O)[C@H](CC(N)=O)NC(=O)[C@H](CCC(N)=O)NC(=O)[C@@H](N)CSSC[C@@H](C(=O)OC(=O)c2ccccc2N)NC(=O)[C@H](Cc2ccc(OP(=O)(O)O)cc2)NC1=O` (H-CQNI[pY]C-{O(2-Aminobenzoyl)}; disulfide 1-6) yielded an IC50 of 15 nM. `NC(=O)C[C@H](N)C(=O)NC1(C(=O)N[C@@H](Cc2ccc(OP(=O)(O)O)cc2)C(=O)N[C@@H](CCC(=O)O)C(=O)OC(=O)c2ccccc2N)CCCCC1` (H-N[Ac6c][pY]E-{O(2-Aminobenzoyl)}) was tested, and the IC50 was 14 nM. For `CC[C@H](C)[C@H](NC(=O)[C@H](CC(N)=O)NC(=O)[C@@H](N)CCC(N)=O)C(=O)N[C@@H](Cc1ccc(OP(=O)(O)O)cc1)C(=O)N[C@@H](CCC(=O)O)C(=O)OC(=O)c1ccc(N)cc1` (H-QNI[pY]E-X11), the IC50 was 230 nM. For `CC[C@H](C)[C@H](NC(=O)[C@H](CC(N)=O)NC(=O)[C@@H](N)CCC(N)=O)C(=O)N[C@@H](Cc1ccc(OP(=O)(O)O)cc1)C(=O)N[C@@H](CCC(=O)O)C(=O)NCCOC(=O)c1ccccc1N` (H-QNI[pY]E-X12), the IC50 was 130 nM. Molecule `CC[C@H](C)[C@H](NC(=O)[C@H](CC(N)=O)NC(=O)[C@@H](N)CCC(N)=O)C(=O)N[C@@H](Cc1ccc(OP(=O)(O)O)cc1)C(=O)N[C@@H](CCC(=O)O)C(=O)OC(=O)c1cc(N)cc(N)c1` (H-QNI[pY]E-X8) has an IC50 of 180 nM. Work on `NC(=O)CC[C@H](N)C(=O)N[C@@H](CC(N)=O)C(=O)N[C@H]1CSSC[C@@H](C(=O)OC(=O)c2ccccc2N)NC(=O)[C@H](Cc2ccc(OP(=O)(O)O)cc2)NC1=O` (H-QNC[pY]C-{O(2-Aminobenzoyl)}; disulfide 3-5) yielded an IC50 of 570 nM. `NC(=O)C[C@H](N)C(=O)NC1(C(=O)N[C@@H](Cc2ccc(OP(=O)(O)O)cc2)C(=O)N[C@@H](CCC(=O)O)C(=O)OC(=O)c2ccccc2N)CCCC1` (H-N[Ac5c][pY]E-{O(2-Aminobenzoyl)}) was tested, and the IC50 was 64 nM. Molecule `CC[C@H](C)[C@@H]1NC(=O)[C@H](CC(N)=O)NC(=O)[C@@H](N)CSSC[C@@H](C(=O)OC(=O)c2ccccc2N)NC(=O)[C@H](Cc2ccc(OP(=O)(O)O)cc2)NC1=O` (H-CNI[pY]C-{O(2-Aminobenzoyl)}; disulfide 1-5) has an IC50 of 214 nM. `CC[C@H](C)[C@H](NC(=O)[C@H](CC(N)=O)NC(=O)[C@@H](N)CCC(N)=O)C(=O)N[C@@H](Cc1ccc(OP(=O)(O)O)cc1)C(=O)NCOC(=O)c1ccccc1N` (H-QNI[pY]-X1) gave an IC50 of 6 nM. For `CC[C@H](C)[C@H](NC(=O)[C@H](CC(N)=O)NC(=O)[C@@H](N)CCC(N)=O)C(=O)N[C@@H](Cc1ccc(OP(=O)(O)O)cc1)C(=O)N[C@H](C(=O)OC(=O)c1ccccc1N)C(C)C` (H-QNI[pY]V-{O(2-Aminobenzoyl)}), the IC50 was 106 nM. Molecule `CC[C@H](C)[C@H](NC(=O)[C@H](CC(N)=O)NC(=O)[C@@H](N)CCC(N)=O)C(=O)N[C@@H](Cc1ccc(OP(=O)(O)O)cc1)C(=O)N[C@@H](CCC(=O)O)C(=O)OC(=O)c1cc2ccccc2[nH]1` (H-QNI[pY]E-X2) has an IC50 of 200 nM. `CC[C@H](C)[C@H](NC(=O)[C@H](CC(N)=O)NC(=O)[C@@H](N)CCC(N)=O)C(=O)N[C@@H](Cc1ccc(OP(=O)(O)O)cc1)C(=O)N[C@@H](CCC(=O)O)C(=O)OC(=O)c1cc2ccccc2cc1N` (H-QNI[pY]E-X13) gave an IC50 of 600 nM. Work on `CC[C@H](C)[C@H](NC(=O)[C@H](CC(N)=O)NC(=O)[C@@H](N)CCC(N)=O)C(=O)N[C@@H](Cc1ccc(OP(=O)(O)O)cc1)C(=O)N[C@@H](CCC(=O)O)C(=O)OC(=O)c1cccnc1N` (H-QNI[pY]E-X10) yielded an IC50 of 480 nM. With `CC[C@H](C)[C@H](NC(=O)[C@H](CC(N)=O)NC(=O)[C@@H](N)CCC(N)=O)C(=O)N[C@@H](Cc1ccc(OP(=O)(O)O)cc1)C(=O)N[C@@H](CCC(=O)O)C(=O)OC(=O)c1ccccc1O` (H-QNI[pY]E-X4) the IC50 was 780 nM. `CC[C@H](C)[C@H](NC(=O)[C@H](CC(N)=O)NC(=O)[C@@H](N)CCC(N)=O)C(=O)N[C@@H](Cc1ccc(OP(=O)(O)O)cc1)C(=O)N[C@@H](CCC(=O)O)C(=O)OC(=O)c1cc2ccccc2cn1` (H-QNI[pY]E-X7) showed an IC50 of 550 nM. For `CC[C@H](C)[C@H](NC(=O)[C@H](CC(N)=O)NC(=O)[C@H](N)CSCNC(C)=O)C(=O)N[C@@H](Cc1ccc(OP(=O)(O)O)cc1)C(=O)N[C@@H](CSCNC(C)=O)C(=O)OC(=O)c1ccccc1N`, the IC50 was 272 nM. In the case of `CC[C@H](C)[C@H](NC(=O)[C@H](CC(N)=O)NC(=O)[C@@H](N)CCC(N)=O)C(=O)N[C@@H](Cc1ccc(OP(=O)(O)O)cc1)C(=O)N[C@@H](CCC(=O)O)C(=O)OC(=O)c1ccccc1N` (H-QNI[pY]E-{O(2-Aminobenzoyl)}), the IC50 is reported as 22 nM. `CC[C@H](C)[C@H](NC(=O)[C@@H](N)CC(N)=O)C(=O)N[C@@H](Cc1ccc(OP(=O)(O)O)cc1)C(=O)N[C@@H](Cc1ccccc1)C(=O)OC(=O)c1ccccc1N` (H-NI[pY]F-{O(2-Aminobenzoyl)}) gave an IC50 of 54 nM. `CC[C@H](C)[C@H](N)C(=O)N[C@H](C(=O)N[C@@H](Cc1ccc(OP(=O)(O)O)cc1)C(=O)N[C@@H](CC(=O)O)C(=O)OC(=O)c1ccccc1N)[C@@H](C)CC` (H-II[pY]D-{O(2-Aminobenzoyl)}) showed an IC50 of 230 nM. `CC[C@H](C)[C@H](NC(=O)[C@H](CC(N)=O)NC(=O)[C@@H](N)CCC(N)=O)C(=O)N[C@@H](Cc1ccc(OP(=O)(O)O)cc1)C(=O)N[C@@H](CC(C)C)C(=O)OC(=O)c1ccccc1N` (H-QNI[pY]L-{O(2-Aminobenzoyl)}) showed an IC50 of 138 nM. `CC[C@H](C)[C@H](NC(=O)[C@H](CC(N)=O)NC(=O)[C@@H](N)CCC(N)=O)C(=O)N[C@@H](Cc1ccc(OP(=O)(O)O)cc1)C(=O)N[C@H](C(=O)OS(=O)(=O)c1cccc2cccnc12)[C@@H](C)CC` (H-QNI[pY]I-X9) was tested, and the IC50 was 230 nM. `CC[C@H](C)[C@H](NC(=O)[C@H](CC(N)=O)NC(=O)[C@@H](N)CCC(N)=O)C(=O)N[C@@H](Cc1ccc(OP(=O)(O)O)cc1)C(=O)N[C@@H](C)C(=O)OC(=O)c1ccccc1N` (H-QNI[pY]A-{O(2-Aminobenzoyl)}) gave an IC50 of 11 nM. With `CC[C@H](C)[C@H](NC(=O)[C@H](CC(N)=O)NC(=O)[C@@H](N)CSCNC(C)=O)C(=O)N[C@@H](Cc1ccc(OP(=O)(O)O)cc1)C(=O)N[C@@H](CSCNC(C)=O)C(=O)OC(=O)c1ccccc1N` the IC50 was 96 nM. `CC[C@H](C)[C@H](NC(=O)[C@H](CC(N)=O)NC(=O)[C@@H](N)CCC(N)=O)C(=O)N[C@@H](Cc1ccc(OP(=O)(O)O)cc1)C(=O)N[C@H](C(=O)OC(=O)c1ccccc1N)[C@@H](C)CC` (H-QNI[pY]I-{O(2-Aminobenzoyl)}) was tested, and the IC50 was 6 nM.
